Results published in the RepoRT retention time repository (doi:10.1016/j.chroma.2019.01.023).

Assay: HILIC, Merck SeQuant ZIC-pHILIC, 150 × 2.1 mm, 5 µm, 40 °C, 0.3 mL/min, estimated dead time 1.1 min; A: acetonitrile; B: water + 2.8 mM ammonium formate, pH 9; gradient (min/%B) 0/5 1/5 10/51 13/51 13.1/5 20/5
Settings: stereoisomer not certain

Row | SMILES | LC retention time [min]
1 | C=CC(=O)[O-] [2-PROPENOATE] | 2.13
2 | CC(O)(CC(=O)O)CC(=O)SCCNC(=O)CCNC(=O)C(O)C(C)(C)COP(=O)(O)OP(=O)(O)OCC1OC(n2cnc3c(N)ncnc32)C(O)C1OP(=O)(O)O (configuration not stated) [3-HYDROXY-3-METHYLGLUTARYL-COA] | 9.96
3 | CC(C)=CC(=O)SCCNC(=O)CCNC(=O)C(O)C(C)(C)COP(=O)(O)OP(=O)(O)OCC1OC(n2cnc3c(N)ncnc32)C(O)C1OP(=O)(O)O (configuration not stated) [3-METHYLCROTONYL-COA] | 7.95
4 | O=C(O)C(O)COP(=O)(O)O (configuration not stated) [3-PHOSPHOGLYCERATE] | 10.1
5 | NC(CS(=O)O)C(=O)O (configuration not stated) [3-SULFINOALANINE] | 8.64
6 | N[C@H](C(=O)O)c1ccc(O)cc1 [4-HYDROXY-L-PHENYLGLYCINE] | 9.02
7 | NCC(=O)CCC(=O)O [5-AMINOLEVULINATE] | 9.28
8 | O=C(O)C(O)C(O)C(O)C(O)COP(=O)(O)O (configuration not stated) [6-PHOSPHOGLUCONATE] | 10.3
9 | NCCP(=O)(O)O [(2-AMINOETHYL)PHOSPHONATE] | 9.6
10 | Nc1ncnc2c1ncn2C1OC(COP(=O)(O)OP(=O)(O)O)C(O)C1O (configuration not stated) [ADENOSINE 5'-DIPHOSPHATE] | 9.46
11 | Nc1ncnc2c1ncn2C1OC(COP(=O)(O)OP(=O)(O)OCC2OC(O)C(O)C2O)C(O)C1O (configuration not stated) [ADENOSINE DIPHOSPHATE RIBOSE] | 9.14
12 | Nc1ncnc2c1ncn2C1OC(COP(=O)(O)OP(=O)(O)OC2OC(CO)C(O)C(O)C2O)C(O)C1O (configuration not stated) [ADP-GLUCOSE] | 9.12
13 | O=C1OC(C(O)CO)C(O)=C1O (configuration not stated) [ASCORBATE] | 8.49
14 | O=C(O)c1ccccc1 [BENZOATE] | 1.41
15 | O=P(O)(O)OC(CO)CO [BETA-GLYCEROPHOSPHATE] | 8.57
16 | NCCOP(=O)(O)OP(=O)(O)OCC1OC(n2ccc(N)nc2=O)C(O)C1O (configuration not stated) [CDP-ETHANOLAMINE] | 9.33

Row | SMILES | LC retention time [min]
17 | CC(C)(COP(=O)(O)OP(=O)(O)OCC1OC(n2cnc3c(N)ncnc32)C(O)C1OP(=O)(O)O)C(O)C(=O)NCCC(=O)NCCS (configuration not stated) [COENZYME A] | 9.12
18 | NC(CS)C(=O)NCC(=O)O (configuration not stated) [CYS-GLY] | 8.8
19 | NC(CCSCC(N)C(=O)O)C(=O)O (configuration not stated) [CYSTATHIONINE] | 10.3
20 | NC(CS)C(=O)O (configuration not stated) [CYSTEINE] | 10.2
21 | NC(CSSCC(N)C(=O)O)C(=O)O (configuration not stated) [CYSTINE] | 10.3
22 | Nc1ccn(C2OC(CO)C3OP(=O)(O)OC32)c(=O)n1 (configuration not stated) [CYTIDINE 2',3'-CYCLIC PHOSPHATE] | 8.06
23 | Nc1ccn(C2OC(COP(=O)(O)OP(=O)(O)O)C(O)C2O)c(=O)n1 (configuration not stated) [CYTIDINE DIPHOSPHATE] | 10.2
24 | Nc1ccn(C2OC(COP(=O)(O)OP(=O)(O)OP(=O)(O)O)C(O)C2O)c(=O)n1 (configuration not stated) [CYTIDINE TRIPHOSPHATE] | 11.1
25 | C[C@@H](N)C(=O)O [D-ALANINE] | 5.74
26 | O=P(O)(O)OCC1OC(O)C(O)C1O [D-RIBOSE 5-PHOSPHATE] | 9.19
27 | Nc1ncnc2c1ncn2C1CC(O)C(COP(=O)(O)OP(=O)(O)OP(=O)(O)O)O1 (configuration not stated) [DEOXYADENOSINE TRIPHOSPHATE] | 10.2
28 | Nc1ccn(C2CC(O)C(COP(=O)([O-])OP(=O)([O-])[O-])O2)c(=O)n1 (configuration not stated) [DEOXYCYTIDINE-DIPHOSPHATE] | 9.8
29 | O=c1ccn(C2CC(O)C(COP(=O)(O)OP(=O)(O)OP(=O)(O)O)O2)c(=O)[nH]1 (configuration not stated) [DEOXYURIDINE TRIPHOSPHATE] | 10.5
30 | Nc1nc2c(ncn2C2CC(O)C(COP(=O)(O)OP(=O)(O)O)O2)c(=O)[nH]1 (configuration not stated) [DGDP] | 10.2
31 | Nc1nc2c(ncn2C2CC(O)C(COP(=O)(O)OP(=O)(O)OP(=O)(O)O)O2)c(=O)[nH]1 (configuration not stated) [DGTP] | 11.1
32 | NC(CCCC(N)C(=O)O)C(=O)O (configuration not stated) [DIAMINOPIMELATE] | 10.5
